Experimental data published in patent publication US20230255910A1, “USE OF A CINNAMEIN COMPOSITION FOR THE TREATMENT OF GLYCINE ENCEPHALOPATHY AND UREA CYCLE DISORDERS” (Rush University Medical Center, priority 2020, published 2023).

What was measured:
[1] = tested on: lenti-GLDC shRNA-insulted mice; experiment: Open field test of locomotor activities in lenti-GLDC shRNA-insulted mice; format: in vivo, C57/BL6 mice; details: 50 mg/kg body wt/d daily via gavage, after 10 d of treatment, FIG. 1A-D
Experimental: (§1) C57/BL6 mice (8-10 week old) received lentiviral GLDC shRNA (1×107 IFU/mouse in 100 μl HBSS) once via tail-vein injection. Therefore, control mice also received 100 μl HBSS via tail-vein. From 7 d after lenti-GLDC shRNA injection, mice were treated with cinnamein (50 mg/kg body wt/d) and cinnamic acid (50 mg/kg body wt/d) daily via gavage. After 10 d of treatment, locomotor activities were monitored by open field (FIG. 1A, heat map; FIG. 1B, distance traveled; FIG. 1C, velocity; FIG. 1D, center zone frequency). Results are mean+SEM of five mice per group. *p<0.05; **p<0.01; ***p<0.001.
C57/BL6 mice (8-10 week-old) received lentiviral GLDC shRNA (1×107 IFU/mouse in 100 μl Hank's Balanced Salt Solution or HBSS) once via tail-vein injection. The group of control mice received only 100 μl HBSS via tail-vein injection. Oral administration of cinnamein occurred from 7 d after lenti-GLDC shRNA injection. Mice were treated with 50 mg/kg body wt/d of cinnamein daily via gavage. Cinnamein (Sigma) was solubilized in 100 μl 0.5% methyl cellulose before gavage. […]
After 10 d of treatment with cinnamein and cinnamic acid, mice were monitored for locomotor activities by open field test. […] Each mouse was placed individually on the center of the arena and the performance was monitored by the live video tracking system.

[2] = tested on: lenti-GLDC shRNA-insulted mice; experiment: Barnes maze, spatial learning and memory in lenti-GLDC shRNA-insulted mice; format: in vivo, C57/BL6 mice; details: 50 mg/kg body wt/d daily via gavage, after 10 d of treatment; for latency in reaching the target hole: FIG. 2B; for errors in reaching the target hole: FIG. 2C
Experimental: as §1, with “spatial learning and memory was” for “locomotor activities were”, “Barnes maze (A,” for “open field (FIG. 1A,”, “B, latency; C, errors).” for “FIG. 1B, distance traveled; FIG. 1C, velocity; FIG. 1D, center zone frequency).”
(§2) C57/BL6 mice (8-10 week-old) received lentiviral GLDC shRNA (1×107 IFU/mouse in 100 μl Hank's Balanced Salt Solution or HBSS) once via tail-vein injection. The group of control mice received only 100 μl HBSS via tail-vein injection. Oral administration of cinnamein occurred from 7 d after lenti-GLDC shRNA injection. Mice were treated with 50 mg/kg body wt/d of cinnamein daily via gavage. Cinnamein (Sigma) was solubilized in 100 μl 0.5% methyl cellulose before gavage. Therefore, one group of lenti-GLDC shRNA-insulted mice were also treated with 100 μl 0.5% methyl cellulose as vehicle control. For comparison, one group of lenti-GLDC shRNA-insulted mice were also treated with 50 mg/kg body wt/d of cinnamic acid daily via gavage.
Next, mice were monitored for spatial learning and memory by Barnes maze. Here, mice were trained for two consecutive days followed by examination on day three. During training, the overnight food-deprived mouse was placed in the middle of the maze in a 10 cm high cylindrical start chamber. After 10 s, the start chamber was removed to allow the mouse to move around the maze to find out the color food chips in the baited tunnel.

[3] = tested on: lenti-GLDC shRNA-insulted mice; experiment: Level of glycine in serum and cortex of lenti-GLDC shRNA-insulted mice (fluorometric assay kit); format: in vivo, C57/BL6 mice; details: 50 mg/kg body wt/d daily via gavage, 14 d of treatment; for level of glycine in serum: FIG. 3A; for level of glycine in cortex: FIG. 3B
Experimental: C57/BL6 mice (8-10 week old) received lentiviral GLDC shRNA (1×107 IFU/mouse in 100 μl Hank's Balanced Salt Solution or HBSS) once via tail-vein injection. Therefore, control mice also received 100 μl HBSS via tail-vein. From 7 d after lenti-GLDC shRNA injection, mice were treated with cinnamein (50 mg/kg body wt/d) and cinnamic acid (50 mg/kg body wt/d) daily via gavage. After 14 d of treatment, the level of glycine was measured in serum (A) and cortex (B) by using a fluorometric assay kit (Biovision). Each mouse sample was run in triplicate. Results are mean+SEM of five mice per group. ***p<0.001.
as §2
(§3) On 14 d of treatment, mice were sacrificed, and level of glycine was measured in serum and brain.

[4] = Observation of side effects during drug treatment; format: in vivo, C57/BL6 mice; details: 50 mg/kg body wt/d daily via gavage, during drug treatment (14 d)
Experimental: as §2, §3

[5] = tested on: B6EiC3Sn a/A-Otc^spf-ash/J (Otc^spf-ash) mice; experiment: Barnes maze, cognitive functions in OTC knockout mice (animal model of urea cycle disorders); format: in vivo; details: 50 mg/kg body weight/d orally via gavage for 15 days, FIG. 4A-C
Experimental: Eight-week old B6EiC3Sn a/A-Otc^spf-ash/J (Otc^spf-ash) mice were treated with cinnamein (50 mg/kg body weight/d) and cinnamic acid (50 mg/kg body weight/d) orally via gavage for 15 days followed by monitoring cognitive functions by Barnes maze (FIG. 4A, representative track plots summarizing the overall activity of mice on the apparatus recorded with a Noldus camera and visualized by Ethovision XT software; FIG. 4B, errors; FIG. 4C, latency). Results are mean+SEM of three mice per group. ***p<0.001.
Cognitive deficit is common in individuals with inherited urea cycle disorders (UCDs). […] See for example Qureshi et al., “Ornithine Transcarbamylase Deficiency in Mutant Mice I. Studies on the Characterization of Enzyme Defect and Suitability as Animal Model of Human Disease,” (1979) Pediat. Res. 13: pp 807-811; Hodges et al., “The spf^ash mouse: A missense mutation in the ornithine transcarbamylase gene also causes aberrant mRNA splicing,” (1989) Proc. Natl. Acad. Sci. USA 86: pp. 4142-4146. OTC knockout B6EiC3Sn a/A-Otc^spf-ash/J (Otc^spf-ash) mice were obtained from the Jackson Lab. Cinnamein was purchased from Sigma. Cinnamic acid was bought from Spectrum Chemicals.

| Compound | locomotor activities (heat map, total distance travelled, velocity, center zone frequency) [1] | latency in reaching the target hole [2] | errors in reaching the target hole [2] | level of glycine in serum [3] | level of glycine in cortex [3] | side effects including hair loss, weight loss, diarrhea, or untoward infection [4] | cognitive functions (Barnes maze errors and latency) [5] |
| --- | --- | --- | --- | --- | --- | --- | --- |
| O=C(C=Cc1ccccc1)OCc1ccccc1 [cinnamein, 3-phenyl-2-propenoic acid phenylmethyl ester] | improved locomotor activities | significantly reduced | significantly reduced | significantly inhibited | significantly inhibited | No other side effects were observed | recovers cognitive functions |
| O=C(O)C=Cc1ccccc1 [cinnamic acid] | improved locomotor activities | significantly reduced | significantly reduced | significantly inhibited | significantly inhibited | No other side effects were observed | recovers cognitive functions |
